Data set [1] concerns the target T1, Peroxisome proliferator-activated receptor gamma (Homo sapiens, UniProt P37231).
T1 sequence (P37231 whole entry): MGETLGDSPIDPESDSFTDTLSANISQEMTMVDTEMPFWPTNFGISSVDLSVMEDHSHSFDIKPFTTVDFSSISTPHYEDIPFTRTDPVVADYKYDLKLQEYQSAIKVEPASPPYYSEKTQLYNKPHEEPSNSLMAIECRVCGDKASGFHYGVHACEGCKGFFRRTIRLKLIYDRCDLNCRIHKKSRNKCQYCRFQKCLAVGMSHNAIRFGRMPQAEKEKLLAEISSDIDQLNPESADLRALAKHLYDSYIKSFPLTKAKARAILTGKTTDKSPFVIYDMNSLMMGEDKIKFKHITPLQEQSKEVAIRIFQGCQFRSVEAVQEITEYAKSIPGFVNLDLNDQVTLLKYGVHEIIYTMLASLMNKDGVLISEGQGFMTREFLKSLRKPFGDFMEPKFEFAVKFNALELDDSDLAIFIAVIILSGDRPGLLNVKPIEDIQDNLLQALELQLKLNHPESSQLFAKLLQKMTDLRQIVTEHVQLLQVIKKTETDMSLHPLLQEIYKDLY
Description: Activity at PPARgamma (unknown origin) expressed in human HeLa-derived HG5LN cells transfected with the GAL4 DNA-binding domain fused to the PPARgamma ligand-binding domain assessed as inhibition of transcriptional activity after 18 hrs by luminescence-based luciferase reporter gene assay

For data set [2], the system named is Salmonella typhimurium. The experiment in a line: Genotoxicity in Salmonella typhimurium TA98 in presence of aroclor-1254-induced rat S9 fraction by Ames test. It is filed as toxicity, organism-based. As to conditions: salmonella enterica subsp. enterica serovar typhimurium. For orientation: The Ames test detects mutagens through reverse mutation in bacteria.

For data set [3], the system named is TK6. The data set can be described thus: Genotoxicity in human TK6 cells incubated for 3 hrs in presence of aroclor-1254-induced rat S9 fraction followed by 27 hrs recovery period by Giemsa staining dependent optical microscopy based micronucleus test. It is filed as toxicity, cell-based. As to conditions: s9, 3 h.
For data set [4], the system named is Salmonella typhimurium. The experiment in a line: Genotoxicity in Salmonella typhimurium TA100 in absence of aroclor-1254-induced rat S9 fraction by Ames test. It is filed as toxicity, organism-based. As to conditions: salmonella enterica subsp. enterica serovar typhimurium.
Data set [5] deals with T2, Oxysterols receptor LXR-beta (Homo sapiens, UniProt P55055).
T2 sequence (P55055 whole entry): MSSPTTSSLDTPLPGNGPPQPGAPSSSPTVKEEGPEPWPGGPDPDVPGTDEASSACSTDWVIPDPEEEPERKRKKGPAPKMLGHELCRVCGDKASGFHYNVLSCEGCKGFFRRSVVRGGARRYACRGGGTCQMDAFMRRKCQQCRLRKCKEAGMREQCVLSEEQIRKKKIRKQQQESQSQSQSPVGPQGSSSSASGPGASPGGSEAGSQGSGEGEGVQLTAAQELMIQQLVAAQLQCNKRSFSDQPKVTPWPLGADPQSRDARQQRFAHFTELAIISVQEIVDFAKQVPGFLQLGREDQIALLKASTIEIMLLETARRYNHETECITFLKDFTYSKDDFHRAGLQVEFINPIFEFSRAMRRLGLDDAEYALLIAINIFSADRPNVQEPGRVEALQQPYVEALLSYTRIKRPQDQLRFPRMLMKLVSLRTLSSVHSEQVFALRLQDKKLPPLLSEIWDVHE
Description: Activity at LXRbeta (unknown origin) expressed in human HeLa-derived HG5LN cells transfected with the GAL4 DNA-binding domain fused to the LXRbeta ligand-binding domain assessed as inhibition of transcriptional activity after 18 hrs by luminescence-based luciferase reporter gene assay

The subject of data set [6] is Mus musculus. The experiment in a line: In vivo inverse agonist activity at RORgamma in wild type BALB/c ByJ Rj mouse model of imiquimod-induced skin inflammation model assessed as attenuation of imiquimod-induced epidermal hyperplasia at 1% administered topically twice daily for 7 days dosed 2 hrs before and 6 hrs after imiquimod administration measured on day 8 by hematoxylin and eosin staining-based histological analysis. The data set is classed as functional.

For data set [7], the system named is Mus musculus. The data set can be described thus: In vivo inverse agonist activity at RORgamma in wild type BALB/c ByJ Rj mouse model of imiquimod-induced skin inflammation model assessed as attenuation of imiquimod-induced epidermal hyperplasia at 0.5 to 6% administered topically twice daily for 7 days dosed 2 hrs before and 6 hrs after imiquimod administration measured on day 8 by hematoxylin and eosin staining-based histological analysis. The data set is classed as functional, organism-based.

Drawing on ChEMBL document CHEMBL4219169, “Sulfoximines as potent RORγ inverse agonists” (Bioorg Med Chem Lett, 2018), this text covers Kd and Activity for 1 molecule.

Usually Kd stands for the concentration at which binding is half-saturated. Lower therefore signals tighter binding.

SMILES strings stand for the structures.

In the case of `CCc1ccc(N(CC(C)C)S(=O)(=O)c2ccc(OCC3CCOCC3)c([S@@](C)(=N)=O)c2)cc1`, the Kd in data set [1] and in data set [5] was above 10 µM throughout. The Activity result in data set [2] is “Non-Toxic”; in data set [3] it was “Non-Toxic”; in data set [4], “Non-Toxic”; in data set [6], 35%; in data set [7], “Dose-dependent effect”.
